Assay [1] has as its system muscle cells from amyotrophic lateral sclerosis (ALS). Description: Desmin positive cell proliferation, muscle cells from amyotrophic lateral sclerosis (ALS). The class given is cell-based, human. To be noted: for desmin positive cells as percentage of total cells: peptide alone, 10 ng/ml, mean±s.d. The source says:
(§1) Human primary muscle cell cultures were isolated as previously described [Lewis et al., 2000; Sinanan et al., 2004]. Briefly, following informed consent, craniofacial (masseter) muscle biopsies were obtained from healthy adult and CMD patients during elective surgery at the Eastman and Middlesex Hospitals, London, UK. Human lower limb (vastus lateralis) muscle samples were obtained from consenting, adult healthy, FSHD and ALS patients by needle biopsy under local anaesthesia at the Royal Free Hospital, London, UK. Biopsies were pooled from several patients with the same disorder to obtain sufficient cell numbers in the primary cultures. These were washed with antibiotic (penicillin, 100 U/ml; streptomycin, 100 μg/ml; fungizone, 2.5 μg/ml; Invitrogen) supplemented DMEM (high glucose; Invitrogen), scissor-minced and tissue fragments plated into 0.2% gelatin-coated (Sigma-Aldrich) T150 cm^2 culture flasks (Helena Biosciences). Explant cultures were incubated in serum-containing Growth Media (sGM), composed of DMEM, 20% FCS (PAA Laboratories), penicillin (100 U/ml) and streptomycin ([…]) (Invitrogen), and maintained at 37° C. in humidified 95% air with 5% CO2. The first wave of migration of mononuclear cells from the explant was designated the […]-wave and this population was used throughout this study. Migratory human muscle cell were enzymatically harvested using trypsin-EDTA (Invitrogen) and subcultured in sGM until 70-80% confluency. Passage number x (Px), was defined as the xth sequential harvest of subconfluent cells. All experiments were performed using P3-5 cohorts. The expanded cells were then stored under cryogenic conditions until they were used in the experiments described below. At least 6 runs were made for each of the treatments used for each diseased muscle culture as well as for the two types of healthy muscle.
Assessment of the number of myogenic precursors was performed as described previously (Sinanan et al., 2004). Cells were re-plated on gelatin-coated (0.2%) 13 mm coverslips at an initial density of 4.5×10^3 cells cm^−2. […]
(§2) At the appropriate time-points, cells were fixed with methanol for 10 min (−20° C.), followed by detergent permeabilization with 0.5% Triton-X100 for 10-15 min. […] Cell-associated fluorescence and morphology, were visualized by epi-fluorescence and Leica Modulation Contrast (LMC) microscopy respectively, using an inverted Leica DMIRB microscope equipped with Leica FW4000 image processing software. For the proliferation assay, all blue and green fluorescent positive cells were counted in a field. […]

Assay [2] deals with infarcted ovine heart. Description: Ovine myocardial infarction, intracoronary injection, ejection fraction by echocardiography. Format: in vivo. To be noted: ovine MI; intracoronary injection 15 minutes after MI; ejection fraction day 6 vs day 1. The text has this: A myocardial infarction (MI) was induced in ovine hearts by catheterising a marginal branch of the circumflex coronary artery and injecting a small bolus of microspheres to induce localised ischemia. […] As a control, mature liver-type IGF-I was used.

For assay [3], the system named is primary human muscle cell cultures. Nature of the assay: Creatine phosphokinase (CPK) assay of myogenic differentiation / myotube formation. To be noted: for effect on myoblast differentiation and myotube formation: differentiation medium, 48 hours, peptide alone (IGF-I 10 ng/ml). The class given is cell-based. Here is the method: This assay was performed using previously published protocols [Auluck et al., 2005]. Measurement of CPK allows for the quantitative comparison of myogenesis [Goto et al., 1999], as it is a marker of myotube formation. The enzyme CPK catalyzes the reversible phosphorylation of adenosine-5-diphosphate (ADP) to form adenosine-5-triphosphate (ATP) and free creatine. The reaction may be followed in either direction by measuring the formation of inorganic phosphorus, an end-product of the reaction which is proportional to CPK activity. This was measured using the calorimetric method based on the generation of inorganic phosphate [Fiske and Subbarow, 1925] procedure. This was then expressed in terms of the protein content of the culture.
Previously expanded primary human muscle cell cultures were re-plated at 10×10^4 cells/well in 0.2% gelatin coated 96 well plates. […] (Sigma-Aldrich IGF-I ER2). After 48 hours, cells were washed twice with ice cold PBS and then stored frozen in 0.5 mM glycine buffer (pH 6.75) at −70° C. Fixed cells were lysed by rapid thawing and CPK assay kit used according to manufacturers instructions (Sigma-Aldrich). The protein concentration of each sample was determined against an albumin standard curve using the Pierce Micro BCA Kit (PerBio Science, UK Ltd., Northumberland, UK).

Assay [4] has as its system muscle cells from FSHD. Description: Desmin positive cell proliferation, muscle cells from FSHD. The class given is cell-based, human. The note with it: for desmin positive cells as percentage of total cells: peptide alone, 10 ng/ml, mean±s.d.
Source text: as §1, with “The expanded cells were then stored under cryogenic conditions until they were used in the experiments described below. At least 6 runs were made for each of the treatments used for each diseased muscle culture as well as for the two types of healthy muscle.” left out
as §2

Where [5] appears, read: stabilised peptide in combination with IGF-I.

Entries after “also recorded” stand apart in the source; their conditions may differ. *1 amine or outer side, *2 acyl side, *3 side chain or, on linkers, in order; H or OH if unused. [ ]: non-standard residue; d: D form. PEG (Jeffamine) = not defined here; Suc = O=C(CCC(=O)[*:2])[*:1]

On to “IGF-I: IGF-I receptor binding domain encoded by Exons 3 and 4, common to all splice variants, approximately 70 amino acids [reference compound]”, for which the results for the “desmin positive cells as percentage of total cells” value in assay [1] and in assay [4] were 4.7±1.4% and 14.1±1.6%, respectively. Further, in assay [2], the “effect on percentage of viable myocardium and ejection fraction” value is recorded as “much smaller effect”. The “effect on myoblast differentiation and myotube formation” value in assay [3] was “apparently stimulates myotube formation”; in assay [3] (listed as mature IGF-I), “enhanced differentiation”.

On to “stabilised peptide: SEQ ID NO: 15 with D-Arginine at positions 14 and 15, N-terminus attached to PEG (Jeffamine) via succinic acid bridge, amidated at C-terminus ({PEG (Jeffamine)-Suc}-YQPPSTNKNTKSQ[dR][dR]KGSTFEEHK-NH2; reading uncertain)”, for which the “desmin positive cells as percentage of total cells” value in assay [1] was found to be 7.2±0.8%; in assay [4], 20.4±2.1%. Further, the “desmin positive cells as percentage of total cells, IGF-I added” value was 5.3±1.0% in assay [1] (setting [5]) and 14.5±1.4% in assay [4] (setting [5]). Besides, in assay [1] (stabilised peptide plus Ab-1), the “desmin positive cells as percentage of total cells, plus anti-IGF-I receptor antibody Ab-1” value worked out at 6.5±0.8%. Moreover, the “effect on percentage of viable myocardium and ejection fraction” value in assay [2] was “markedly increase the percentage of viable myocardium and the ejection fraction”. The “effect on myoblast differentiation and myotube formation” value in assay [3] is “no effect on myotube formation; also recorded: did not facilitate primary myoblast differentiation and myotube formation”. In assay [3] (stabilised peptide with 10 ng/ml IGF-I, dose-dependent), the “effect on differentiation in the presence of 10 ng/ml IGF-I” value is “prevented differentiation to the myoblast fusion competent stage”.

The record behind these values is patent US20060211606A1, “Peptides” (priority 2005, published 2006).
